This passage reports CC50 and EC50 results from patent publication US10442804B2, “Compounds for the treatment of hepatitis B virus infection” (Gilead Sciences, Inc., priority 2017, dated 2019).

Series [1] in a line: MT-4 cytotoxicity assay. In kind it is cell-based, human. The note with it: human, five days, Cell Titer Glo luminescence; read-out: MT-4 CC50.
Series [2] has as its system HBV-infected NTCP-HepG2 cells, secreted HBsAg. The experiment in a line: microbe, parasite or virus in culture. In kind it is cell-based, hepatitis B virus (genotype D, AD38-derived). The settings on record: Hepatitis B virus, 120 h, secreted HBsAg in supernatant after 5 days; geometric mean of minimum four determinations; read-out: NTCP HBsAg EC50. In a few lines: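 NTCP-HepG2 cells were infected with genotype D HBV at 4000 genome equivalents/cell, then seeded 4 days post-infection with serially diluted compounds (1% DMSO) for 5 days. Supernatant HBsAg was measured by chemiluminescent MSD immunoassay. EC50 from four-parameter fit, geometric mean of ≥4 determinations.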

pEC50: −log10 of the molar value. Some results are limits rather than exact numbers.

In general, CC50 refers to the concentration at which the toxic effect on the cells reaches its halfway point. What is called pEC50 is the negative decadic logarithm of the EC50, by convention in mol/L. Turning to `COCCOCc1cc2c(cc1OC(F)F)-c1cc(=O)c(C(=O)O)cn1N1[C@@H]2CCC1(C)C` [Compound 108, (R)-11-(difluoromethoxy)-12-((2-methoxyethoxy)methyl)-3,3-dimethyl-8-oxo-2,3,8,13b-tetrahydro-1H-pyrido[2,1-a]pyrrolo[1,2-c]phthalazine-7-carboxylic acid], the CC50 at 5 days in series [1] is above 10000 nM. Moreover, in series [2], the pEC50 was 7.77.
For `COCCCOc1cc2c(cc1COC)-c1cc(=O)c(C(=O)O)cn1N1[C@@H]2COCC1(C)C` [Example 102, (S)-12-(methoxymethyl)-13-(3-methoxypropoxy)-4,4-dimethyl-9-oxo-3,4,9,14b-tetrahydro-1H-[1,4]oxazino[3,4-a]pyrido[1,2-c]phthalazine-8-carboxylic acid], in that order: above 10000 nM and 7.94.
For `COc1cc2c(cc1OCCCOCC(F)(F)F)[C@H]1CCC(C)(C)N1n1cc(C(=O)O)c(=O)cc1-2` [Example 60, (R)-11-methoxy-3,3-dimethyl-8-oxo-12-(3-(2,2,2-trifluoroethoxy)propoxy)-2,3,8,13b-tetrahydro-1H-pyrido[2,1-a]pyrrolo[1,2-c]phthalazine-7-carboxylic acid], in that order: above 10000 nM and 8.92.
In the case of `COc1cc2c(cc1C#CC(C)(C)S(=O)(=O)C1CC1)[C@H]1CCC(C)(C)N1n1cc(C(=O)O)c(=O)cc1-2` [Example 84, (R)-12-(3-(cyclopropylsulfonyl)-3-methylbut-1-yn-1-yl)-11-methoxy-3,3-dimethyl-8-oxo-2,3,8,13b-tetrahydro-1H-pyrido[2,1-a]pyrrolo[1,2-c]phthalazine-7-carboxylic acid], in series [1], the CC50 at 5 days was above 10000 nM. In series [2], the pEC50 is 7.95.
Regarding `COCCCOc1cc2c(cc1CO)-c1cc(=O)c(C(=O)O)cn1N1[C@@H]2CCC1(C)C` [Compound 113, (R)-11-(hydroxymethyl)-12-(3-methoxypropoxy)-3,3-dimethyl-8-oxo-2,3,8,13b-tetrahydro-1H-pyrido[2,1-a]pyrrolo[1,2-c]phthalazine-7-carboxylic acid], in series [1], the CC50 at 5 days was above 10000 nM. The pEC50 in series [2] is 7.64.
For `COc1cc2c(cc1Oc1ncccn1)[C@H]1CCC(C)(C)N1n1cc(C(=O)O)c(=O)cc1-2` [Example 41, (R)-11-methoxy-3,3-dimethyl-8-oxo-12-(pyrimidin-2-yloxy)-2,3,8,13b-tetrahydro-1H-pyrido[2,1-a]pyrrolo[1,2-c]phthalazine-7-carboxylic acid], in that order: above 10000 nM and 6.92.
Regarding `COc1cc2c(cc1C#CC(C)(C)S(C)(=O)=O)[C@H]1CCC(C)(C)N1n1cc(C(=O)O)c(=O)cc1-2` [Example 83, (R)-11-methoxy-3,3-dimethyl-12-(3-methyl-3-(methylsulfonyl)but-1-yn-1-yl)-8-oxo-2,3,8,13b-tetrahydro-1H-pyrido[2,1-a]pyrrolo[1,2-c]phthalazine-7-carboxylic acid], in series [1], the CC50 at 5 days was above 10000 nM. Besides, in series [2], the pEC50 is 8.02.
Take `COCc1cc2c(cc1OCCn1nc3ccccn3c1=O)[C@H]1CCC(C)(C)N1n1cc(C(=O)O)c(=O)cc1-2` [Example 95, (R)-11-(methoxymethyl)-3,3-dimethyl-8-oxo-12-(2-(3-oxo-[1,2,4]triazolo[4,3-a]pyridin-2(3H)-yl)ethoxy)-2,3,8,13b-tetrahydro-1H-pyrido[2,1-a]pyrrolo[1,2-c]phthalazine-7-carboxylic acid]: the CC50 at 5 days in series [1] is above 10000 nM. Further, in series [2], the pEC50 is 8.34.
For `COCCCOc1cc2c(cc1S(C)(=O)=O)-c1cc(=O)c(C(=O)O)cn1N1[C@@H]2CCC1(C)C` [Example 69, (R)-12-(3-methoxypropoxy)-3,3-dimethyl-11-(methylsulfonyl)-8-oxo-2,3,8,13b-tetrahydro-1H-pyrido[2,1-a]pyrrolo[1,2-c]phthalazine-7-carboxylic acid], in that order: above 10000 nM and 7.28.
With `COCCCOc1cc2c(cc1OC(F)F)-c1cc(=O)c(C(=O)O)cn1N1[C@H]2CCC1(C)C` (single isomer, unassigned) [Example 20], the CC50 at 5 days in series [1] was above 10000 nM. Besides, the pEC50 in series [2] is 7.37.
With `[2H]C([2H])(OC)C([2H])([2H])C([2H])([2H])Oc1cc2c(cc1COC)-c1cc(=O)c(C(=O)O)cn1N1[C@@H]2CCC1(C)C` [Compound 118, (R)-11-(methoxymethyl)-12-(3-methoxypropoxy-1,1,2,2,3,3-d6)-3,3-dimethyl-8-oxo-2,3,8,13b-tetrahydro-1H-pyrido[2,1-a]pyrrolo[1,2-c]phthalazine-7-carboxylic acid], the CC50 at 5 days in series [1] is above 10000 nM. In addition, the pEC50 in series [2] is 8.39.
For `COCCCOc1cc2c(cc1OC(F)F)-c1cc(=O)c(C(=O)O)cn1N1C2CCC1(C)C` (centres unmarked) [Example 18, 11-(difluoromethoxy)-12-(3-methoxypropoxy)-3,3-dimethyl-8-oxo-2,3,8,13b-tetrahydro-1H-pyrido[2,1-a]pyrrolo[1,2-c]phthalazine-7-carboxylic acid], in that order: above 10000 nM and 8.40.
As to `COc1cc2c(cc1OCCCOC(F)(F)F)[C@H]1CCC(C)(C)N1n1cc(C(=O)O)c(=O)cc1-2` [Example 58, (R)-11-methoxy-3,3-dimethyl-8-oxo-12-(3-(trifluoromethoxy)propoxy)-2,3,8,13b-tetrahydro-1H-pyrido[2,1-a]pyrrolo[1,2-c]phthalazine-7-carboxylic acid], the half-maximal cytotoxic concentration (CC50) at 5 days in series [1] is 9300 nM. Besides, in series [2], the pEC50 was 8.32.
Consider `COCCCOc1cc2c(cc1Cl)-c1cc(=O)c(C(=O)O)cn1N1CC(C)(C)C[C@@H]21` (single isomer, unassigned) [Example 30], for which the 50% cytotoxic concentration (CC50) at 5 days in series [1] was above 10000 nM. For the same molecule, the pEC50 in series [2] is 8.00.
For `COCCCOc1cc2c(cc1Cl)-c1cc(=O)c(C(=O)O)cn1N1CC(C)(C)C[C@H]21` (single isomer, unassigned) [Example 29], in that order: above 10000 nM and 7.85.
For the molecule `COCCCOc1c(OC)cc2c(c1Br)[C@H]1CCC(C)(C)N1n1cc(C(=O)O)c(=O)cc1-2` [Example 40, (R)-13-bromo-11-methoxy-12-(3-methoxypropoxy)-3,3-dimethyl-8-oxo-2,3,8,13b-tetrahydro-1H-pyrido[2,1-a]pyrrolo[1,2-c]phthalazine-7-carboxylic acid], the CC50 at 5 days in series [1] was 8800 nM. For the same molecule, the pEC50 in series [2] was 6.44.
For `COCCCOc1cc2c(cc1Cl)-c1cc(=O)c(C(=O)O)cn1N1[C@H]2CCCC1(C)C` (single isomer, unassigned) [Example 13], in that order: above 10000 nM and 7.47.
Regarding `COCCCOc1cc2c(cc1C1COC1)-c1cc(=O)c(C(=O)O)cn1N1[C@@H]2CCC1(C)C` [Example 77, (R)-12-(3-methoxypropoxy)-3,3-dimethyl-11-(oxetan-3-yl)-8-oxo-2,3,8,13b-tetrahydro-1H-pyrido[2,1-a]pyrrolo[1,2-c]phthalazine-7-carboxylic acid], the CC50 at 5 days in series [1] is above 10000 nM. The pEC50 in series [2] is 7.90.
As to `CCOc1cc2c(cc1OCCCOC)[C@H]1CCC(C)(C)N1n1cc(C(=O)O)c(=O)cc1-2` [Example 21, (R)-11-ethoxy-12-(3-methoxypropoxy)-3,3-dimethyl-8-oxo-2,3,8,13b-tetrahydro-1H-pyrido[2,1-a]pyrrolo[1,2-c]phthalazine-7-carboxylic acid], the CC50 at 5 days in series [1] is above 10000 nM. In series [2], the pEC50 is 8.12.
For the molecule `COCc1cc2c(cc1C#CC(C)(C)O)[C@H]1CCC(C)(C)N1n1cc(C(=O)O)c(=O)cc1-2` [Example 70, (R)-12-(3-hydroxy-3-methylbut-1-yn-1-yl)-11-(methoxymethyl)-3,3-dimethyl-8-oxo-2,3,8,13b-tetrahydro-1H-pyrido[2,1-a]pyrrolo[1,2-c]phthalazine-7-carboxylic acid], in series [1], the CC50 at 5 days is above 10000 nM. Moreover, in series [2], the pEC50 is 7.68.
As for `COCCCOc1cc2c(cc1Cl)-c1cc(=O)c(C(=O)O)cn1N1CC(C)(C)CCC21` (centres unmarked) [Example 17, 13-chloro-12-(3-methoxypropoxy)-8,8-dimethyl-2-oxo-2,7,8,9,10,10a-hexahydrodipyrido[2,1-a:1′,2′-c]phthalazine-3-carboxylic acid], the CC50 at 5 days in series [1] was above 10000 nM. Moreover, the pEC50 in series [2] is 6.96.
For `COCCCOc1cc2c(cc1C1CC1)-c1cc(=O)c(C(=O)O)cn1N1[C@@H]2COCC1(C)C` [Example 101, (S)-12-cyclopropyl-13-(3-methoxypropoxy)-4,4-dimethyl-9-oxo-3,4,9,14b-tetrahydro-1H-[1,4]oxazino[3,4-a]pyrido[1,2-c]phthalazine-8-carboxylic acid], in that order: 8200 nM and 9.15.
Turning to `CCOCCCOc1cc2c(cc1OC)-c1cc(=O)c(C(=O)O)cn1N1[C@@H]2CCC1(C)C` [Example 62, (R)-12-(3-ethoxypropoxy)-11-methoxy-3,3-dimethyl-8-oxo-2,3,8,13b-tetrahydro-1H-pyrido[2,1-a]pyrrolo[1,2-c]phthalazine-7-carboxylic acid], in series [1], the CC50 at 5 days was above 10000 nM. For the same molecule, in series [2], the pEC50 was 9.17.
For `COCCCOc1cc2c(cc1Cl)-c1cc(=O)c(C(=O)O)cn1N1C2CCC1(C)C` (centres unmarked) [Example 4, 11-chloro-12-(3-methoxypropoxy)-3,3-dimethyl-8-oxo-2,3,8,13b-tetrahydro-1H-pyrido[2,1-a]pyrrolo[1,2-c]phthalazine-7-carboxylic acid], in that order: above 10000 nM and 8.41.
With `CC1(C)CC[C@@H]2c3cc(-c4cnn(C(F)F)c4)c(Cl)cc3-c3cc(=O)c(C(=O)O)cn3N21` [Example 76, (R)-11-chloro-12-(1-(difluoromethyl)-1H-pyrazol-4-yl)-3,3-dimethyl-8-oxo-2,3,8,13b-tetrahydro-1H-pyrido[2,1-a]pyrrolo[1,2-c]phthalazine-7-carboxylic acid], the CC50 at 5 days in series [1] came to 4400 nM. Further, the pEC50 in series [2] was 8.20.
